#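 Grown in 96-well plates, cells were treated for 48 hours with each compound at five concentrations. Insufficient inhibition: endpoint recorded as highest concentration tested. GI50 marks 50% less growth.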 The source made the active and inactive calls. No stated cut-off is given here; in the data, active = GI50 up to about 1.1 µM and inactive = higher.
# Experiments:
# Experiment in all cases: inhibition of tumour cell growth, NCI panel, 48 h
# [1] = system: 786-0
# [2] = system: A498
# [3] = system: A549
# [4] = system: ACHN
# [5] = system: CAKI-1
# [6] = system: CCRF-CEM
# [7] = system: COLO 205
# [8] = system: DU-145
# [9] = system: EKVX
# [10] = system: HCC 2998
# [11] = system: HCT-116
# [12] = system: HCT-15
# [13] = system: HL-60
# [14] = system: HOP-62
# [15] = system: HOP-92
# [16] = system: HT-29
# [17] = system: Hs-578T
# [18] = system: IGROV-1
# [19] = system: K562
# [20] = system: KM12
# [21] = system: LOX IMVI
# [22] = system: M14
# [23] = system: MCF7
# [24] = system: MDA-MB-231
# [25] = system: MDA-MB-435
# [26] = system: MDA-N
# [27] = system: MOLT-4
# [28] = system: Malme-3M
# [29] = system: NCI-H226
# [30] = system: NCI-H23
# [31] = system: NCI-H460
# [32] = system: NCI-H522
# [33] = system: NCI/ADR-RES
# [34] = system: OVCAR-3
# [35] = system: OVCAR-4
# [36] = system: OVCAR-5
# [37] = system: OVCAR-8
# [38] = system: PC-3
# [39] = system: RPMI-8226
# [40] = system: RXF 393
# [41] = system: SF-268
# [42] = system: SF-539
# [43] = system: SK-MEL-28
# [44] = system: SK-MEL-2
# [45] = system: SK-MEL-5
# [46] = system: SK-OV-3
# [47] = system: SN12C
# [48] = system: SNB-19
# [49] = system: SNB-75
# [50] = system: SW-620
# [51] = system: T47D
# [52] = system: TK-10
# [53] = system: U-251
# [54] = system: UACC-257
# [55] = system: UO-31
# [56] = system: SF-295
# [57] = system: SR
# [58] = system: UACC-62
smiles,measurement,setting,value
CS(=O)(=O)N1CC(CCl)c2ccc(NCCN)cc21 (stereo unspecified),GI50,[1],18.7 µM (inactive)
same,GI50,[2],69 µM (inactive)
same,GI50,[3],> 100 µM (inactive)
same,GI50,[4],29.9 µM (inactive)
same,GI50,[5],96.2 µM (inactive)
same,GI50,[6],79.8 µM (inactive)
same,GI50,[7],> 100 µM (inactive)
same,GI50,[8],> 100 µM (inactive)
same,GI50,[9],47.9 µM (inactive)
same,GI50,[10],> 100 µM (inactive)
same,GI50,[11],83.2 µM (inactive)
same,GI50,[12],> 100 µM
same,GI50,[13],> 100 µM (inactive)
same,GI50,[14],14.8 µM (inactive)
same,GI50,[15],26.3 µM (inactive)
same,GI50,[16],> 100 µM (inactive)
same,GI50,[17],27.2 µM (inactive)
same,GI50,[18],12.5 µM (inactive)
same,GI50,[19],> 100 µM (inactive)
same,GI50,[20],> 100 µM (inactive)
same,GI50,[21],> 100 µM (inactive)
same,GI50,[22],> 100 µM (inactive)
same,GI50,[23],> 100 µM (inactive)
same,GI50,[24],33.3 µM (inactive)
same,GI50,[25],> 100 µM (inactive)
same,GI50,[26],> 100 µM (inactive)
same,GI50,[27],> 100 µM (inactive)
same,GI50,[28],> 100 µM (inactive)
same,GI50,[29],> 100 µM (inactive)
same,GI50,[30],53.7 µM (inactive)
same,GI50,[31],> 100 µM (inactive)
same,GI50,[32],23.7 µM (inactive)
same,GI50,[33],> 100 µM (inactive)
same,GI50,[34],> 100 µM (inactive)
same,GI50,[35],58.9 µM (inactive)
same,GI50,[36],> 100 µM (inactive)
same,GI50,[37],57.5 µM (inactive)
same,GI50,[38],> 100 µM (inactive)
same,GI50,[39],> 100 µM (inactive)
same,GI50,[40],35.4 µM (inactive)
same,GI50,[41],39.1 µM (inactive)
same,GI50,[42],72.6 µM (inactive)
same,GI50,[43],> 100 µM (inactive)
same,GI50,[44],> 100 µM (inactive)
same,GI50,[45],> 100 µM (inactive)
same,GI50,[46],22.1 µM (inactive)
same,GI50,[47],> 100 µM (inactive)
same,GI50,[48],39 µM (inactive)
same,GI50,[49],17.1 µM (inactive)
same,GI50,[50],> 100 µM (inactive)
same,GI50,[51],> 100 µM (inactive)
same,GI50,[52],> 100 µM (inactive)
same,GI50,[53],27.7 µM (inactive)
same,GI50,[54],> 100 µM (inactive)
same,GI50,[55],> 100 µM (inactive)
COC1CCC(=O)N1CN(C(C)=O)c1ccc(C)cc1 (stereo unspecified),GI50,[1],> 100 µM (inactive)
same,GI50,[2],> 10 µM (inactive)
same,GI50,[3],> 100 µM (inactive)
same,GI50,[4],> 100 µM (inactive)
same,GI50,[5],> 100 µM (inactive)
same,GI50,[6],0.0569 µM (active)
same,GI50,[7],> 100 µM (inactive)
same,GI50,[8],> 100 µM (inactive)
same,GI50,[10],> 100 µM (inactive)
same,GI50,[11],> 100 µM (inactive)
same,GI50,[12],> 100 µM
same,GI50,[14],> 100 µM (inactive)
same,GI50,[16],> 100 µM (inactive)
same,GI50,[17],> 100 µM (inactive)
same,GI50,[19],> 100 µM (inactive)
same,GI50,[20],> 100 µM (inactive)
same,GI50,[21],> 100 µM (inactive)
same,GI50,[22],> 100 µM (inactive)
same,GI50,[23],> 100 µM (inactive)
same,GI50,[24],> 100 µM (inactive)
same,GI50,[25],> 100 µM (inactive)
same,GI50,[26],> 100 µM (inactive)
same,GI50,[27],> 100 µM (inactive)
same,GI50,[29],> 100 µM (inactive)
same,GI50,[30],> 100 µM (inactive)
same,GI50,[31],> 100 µM (inactive)
same,GI50,[33],> 100 µM (inactive)
same,GI50,[34],> 100 µM (inactive)
same,GI50,[35],> 100 µM (inactive)
same,GI50,[36],> 100 µM (inactive)
same,GI50,[37],> 100 µM (inactive)
same,GI50,[38],> 100 µM (inactive)
same,GI50,[39],> 100 µM (inactive)
same,GI50,[40],> 100 µM (inactive)
same,GI50,[41],> 100 µM (inactive)
same,GI50,[56],> 100 µM (inactive)
same,GI50,[42],> 100 µM (inactive)
same,GI50,[43],> 100 µM (inactive)
same,GI50,[44],> 100 µM (inactive)
same,GI50,[45],> 100 µM (inactive)
same,GI50,[46],> 100 µM (inactive)
same,GI50,[47],> 100 µM (inactive)
same,GI50,[48],> 100 µM (inactive)
same,GI50,[49],> 100 µM (inactive)
same,GI50,[57],> 100 µM (inactive)
same,GI50,[50],> 100 µM (inactive)
same,GI50,[51],> 100 µM (inactive)
same,GI50,[52],> 100 µM (inactive)
same,GI50,[53],> 100 µM (inactive)
same,GI50,[54],> 100 µM (inactive)
same,GI50,[58],> 100 µM (inactive)
same,GI50,[55],> 100 µM (inactive)
CCOC(=O)C1=CC(C)(C(=O)OCC)Nc2c(nc(OC)[nH]c2=O)N1 (stereo unspecified),GI50,[1],> 10 µM (inactive)
same,GI50,[2],> 10 µM (inactive)
same,GI50,[3],> 10 µM (inactive)
same,GI50,[4],> 10 µM (inactive)
same,GI50,[5],> 10 µM (inactive)
same,GI50,[6],> 10 µM (inactive)
same,GI50,[7],> 10 µM (inactive)
same,GI50,[8],> 10 µM (inactive)
same,GI50,[9],> 10 µM (inactive)
same,GI50,[10],> 10 µM (inactive)
same,GI50,[11],> 10 µM (inactive)
same,GI50,[12],> 10 µM
same,GI50,[14],> 10 µM (inactive)
same,GI50,[15],> 10 µM (inactive)
same,GI50,[16],> 10 µM (inactive)
same,GI50,[17],> 10 µM (inactive)
same,GI50,[18],> 10 µM (inactive)
same,GI50,[19],> 10 µM (inactive)
same,GI50,[20],> 10 µM (inactive)
same,GI50,[21],> 10 µM (inactive)
same,GI50,[22],> 10 µM (inactive)
same,GI50,[23],> 10 µM (inactive)
same,GI50,[24],> 10 µM (inactive)
same,GI50,[26],> 10 µM (inactive)
same,GI50,[27],> 10 µM (inactive)
same,GI50,[28],> 10 µM (inactive)
same,GI50,[29],> 10 µM (inactive)
same,GI50,[30],> 10 µM (inactive)
same,GI50,[31],> 10 µM (inactive)
same,GI50,[32],> 10 µM (inactive)
same,GI50,[33],> 10 µM (inactive)
same,GI50,[34],> 10 µM (inactive)
same,GI50,[35],> 10 µM (inactive)
same,GI50,[36],> 10 µM (inactive)
same,GI50,[37],> 10 µM (inactive)
same,GI50,[38],> 10 µM (inactive)
same,GI50,[39],> 10 µM (inactive)
same,GI50,[40],> 10 µM (inactive)
same,GI50,[41],> 10 µM (inactive)
same,GI50,[56],> 10 µM (inactive)
same,GI50,[42],> 10 µM (inactive)
same,GI50,[43],> 10 µM (inactive)
same,GI50,[44],> 10 µM (inactive)
same,GI50,[45],> 10 µM (inactive)
same,GI50,[46],> 10 µM (inactive)
same,GI50,[47],> 10 µM (inactive)
same,GI50,[48],> 10 µM (inactive)
same,GI50,[49],> 10 µM (inactive)
same,GI50,[50],> 10 µM (inactive)
same,GI50,[51],> 10 µM (inactive)
same,GI50,[52],> 10 µM (inactive)
same,GI50,[53],> 10 µM (inactive)
same,GI50,[54],> 10 µM (inactive)
same,GI50,[55],> 10 µM (inactive)

# Reference: ChEMBL document CHEMBL1201862, “PubChem BioAssay data set” (2004)
